Laboratory results as given in patent EP0412762A2, “Peptide inhibitors of human papilloma virus protein binding to retinoblastoma gene proteins” (priority 1989, dated 1991).
Non-standard residues stand in square brackets, D forms with d. Residues, ends and D or L forms follow the SMILES beside them. No end group written: not given here. *: point of attachment. Abu = CC[C@H](N)C(=O)O; Acm = CC(=O)NC*

How the values were obtained:
[1] = target: T1, RBG Protein/E7 (Homo sapiens, UniProt P06400); assay: In vitro solution assay for E7/RBG protein complex formation (immunoprecipitation, T24 cell lysates); type: binding; set-up: Cell lysates used as a source of RBG protein were prepared from human T24 bladder carcinoma cells; endogenous in cells; host or cells: human T24 bladder carcinoma cell lysate
T1 sequence (P06400 1-928): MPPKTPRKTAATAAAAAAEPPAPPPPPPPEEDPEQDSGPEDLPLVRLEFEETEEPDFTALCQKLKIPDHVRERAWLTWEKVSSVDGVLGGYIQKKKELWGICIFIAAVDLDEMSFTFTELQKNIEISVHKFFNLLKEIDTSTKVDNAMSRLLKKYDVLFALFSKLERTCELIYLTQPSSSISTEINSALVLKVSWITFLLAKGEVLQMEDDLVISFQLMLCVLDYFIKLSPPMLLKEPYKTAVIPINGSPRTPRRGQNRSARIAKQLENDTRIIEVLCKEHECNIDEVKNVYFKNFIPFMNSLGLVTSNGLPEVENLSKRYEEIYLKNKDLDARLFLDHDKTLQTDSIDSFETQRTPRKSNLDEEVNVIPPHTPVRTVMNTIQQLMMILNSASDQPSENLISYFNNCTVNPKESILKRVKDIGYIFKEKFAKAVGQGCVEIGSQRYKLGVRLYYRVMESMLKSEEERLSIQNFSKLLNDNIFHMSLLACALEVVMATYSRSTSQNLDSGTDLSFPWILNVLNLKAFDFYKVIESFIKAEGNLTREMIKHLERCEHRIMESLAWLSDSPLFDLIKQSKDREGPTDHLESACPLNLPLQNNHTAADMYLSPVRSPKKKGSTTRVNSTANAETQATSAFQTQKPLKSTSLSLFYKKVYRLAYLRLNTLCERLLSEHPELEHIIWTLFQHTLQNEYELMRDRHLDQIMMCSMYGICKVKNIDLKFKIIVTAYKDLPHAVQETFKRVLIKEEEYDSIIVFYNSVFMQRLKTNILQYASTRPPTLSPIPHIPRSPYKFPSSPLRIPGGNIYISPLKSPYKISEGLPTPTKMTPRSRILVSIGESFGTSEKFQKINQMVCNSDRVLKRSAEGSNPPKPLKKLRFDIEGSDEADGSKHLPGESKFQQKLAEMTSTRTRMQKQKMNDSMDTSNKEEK
Method: (§1) An in vitro solution assay used for the detection of complex formation between E7 protein and p105-RB has been described by Dyson, et al (30). Cell lysates used as a source of RBG protein were prepared from human T24 bladder carcinoma cells as described (30). C36 and the control antibody Pb416 are monoclonal antibodies directed against RGB protein and SV40 large T protein, respectively. These antibodies were a generous gift from E. Harlow (Cold Spring Harbor Laboratories, Cold Spring Harbor, NY). Immunoprecipitates of E7/RBG protein binding reactions containing serially diluted peptide antagonists were dissolved in 35 µl gel loading buffer (30). Five µl was counted directly in Right Safe (Beckman, Palo Alto, CA.) scintillation cocktail and 25 µl was subjected to sodium dodecyl sulphate poly-acrylamide gel electrophoresis. Gels were dried and exposed to Kodak X-AR film at -70 °C overnight. In order to more rapidly assay large numbers of samples and more easily quantitate the binding results, we developed a plate binding assay for the detection of E7/RBG protein association. Purified recombinant E7 was resuspended in 0.1 M sodium carbonate, pH 9.5, at 1 ng/µl. Fifty microliters of this solution was placed into each well of a polyvinyl chloride microtiter plate (COSTAR 2596, Cambridge, MA.). The plate was gently agitated for 18 hours at 4 °C. The E7 solution was aspirated off and 100 µl of plate blocking buffer (PBB) [50mM Hepes 7.0, 250 mM sodium chloride, 0.1% NP4O, 0.5% (w/v) pigskin gelatin, and 0.02% sodium azide] was added per well. The buffer was removed and the plate was washed three times in the above buffer without the gelatin (PB). Five femtomoles of ³⁵S-methionine (Amersham 1100 Ci/mmole, Arlington Heights, IL.) labeled RBG protein prepared in a rabbit reticulocyte lysate was diluted in PB buffer containing various peptide antagonists to a final volume of 50 µl and added to the E7 treated plate. The plate was again incubated at 4 °C with agitation for 1 hour after which the solution was aspirated and each well washed five times with PB. The top of the plate was removed using a hot wire cutting apparatus (D. Lee, Sunnyvale, CA). Each well was placed in 3 ml of Ready Safe scintillation cocktail (Beckman, Palo Alto, CA.) and counted for 1 minute.
(§2) IC₅₀ values represent the average of at least two experiments in which each concentration of inhibitor was tested in triplicate. The variation between experiments was less than 10%. The 50% inhibition concentrations are micromolar. ND = not determined.

[2] = target: T1, RBG Protein/E7; assay: Plate binding assay for E7/RBG protein association (E7-coated plate, 35S-labelled RBG protein); set-up: made in house; host or cells: rabbit reticulocyte lysate (RB, in vitro translation)
Method: as §1, §2

[3] = target: T2, binding of the HPV-16 E7 protein to the RBG protein (Homo sapiens, UniProt P06400); assay: Binding inhibition assay in vitro: immune precipitation of RBG protein from Hela lysate with radiolabelled HPV-16 E7 (Example 2); details: for inhibition of the binding of the HPV E7 protein to the RBG protein (in words): summary statement
T2 construct: Whole cell lysates of Hela cells were used as a source of human RBG protein; endogenous in cells; host or cells: HeLa whole cell lysate (RB); rabbit reticulocyte lysate, T7 promoter clone (E7)
T2 sequence (P06400 1-928): T1 sequence (P06400 1-928)
Method: Peptide A, Peptide B, and Acetyl-GRP 20-27 were assayed for their abilities to inhibit the binding of the HPV-16 E7 protein to the RBG protein. Binding inhibition assays were carried out in vitro using a modification of the procedure described by N. Dyson et al., Science 243: 934-936 1989. Whole cell lysates of Hela cells were used as a source of human RBG protein. Rabbit reticulocyte cell free lysates that permit transcription and translation of exogenously added DNAs served as a source of HPV-16 E7 protein. The HPV-16 E7 gene was added to the rabbit reticulocyte lysate as a recombinant DNA clone under the control of a T7 promoter and incubated for 60 minutes at 30°C in the presence of radiolabeled methionine to allow transcription of the HPV-16 E7 gene and translation into E7 protein that contained radiolabeled methionine. The Hela cell and rabbit reticulocyte lysates were then mixed and incubated at 4°C for 90 minutes. After further manipulations a murine antibody against the RBG protein was added and incubated at 4°C for 60 minutes. Next, a rabbit anti-mouse IgG antibody and protein A sepharose was added to the reaction mixture in order to immune precipitate the RBG protein. At the same time, the E7 protein that was bound to the RBG protein was also precipitated. After an additional 60 minute incubation at 4°C the precipitated proteins were isolated by centrifugation and examined by polyacrylamide gel electrophoresis. Following electrophoresis, the polyacrylamide gel was dried and exposed to x-ray film. […] This biochemical protocol yields a quantitative estimate of the binding of HPV-16 E7 protein to the RBG protein in vitro.
These biochemical reactions can be run with or without added synthetic peptides to evaluate the effects of various concentrations of peptides on the binding of the HPV E7 protein to the RBG protein. In our studies, the addition of peptide A to these reaction mixtures at concentrations of 40 uM, 20 uM, or 2 uM caused a reduction in HPV-16 E7 protein binding to the RBG protein of 90%, 90% and 60% respectively. Addition of Peptide B or Acetyl-GRP 20-27 to the reaction mixture at concentrations up to 60 uM had no effect on HPV-16 E7 protein binding to the RBG protein.

[4] = average of at least two experiments, triplicate, read-out: SOLUTION ASSAY RBG Protein/E7 IC₅₀
[5] = average of at least two experiments, triplicate, read-out: PLATE ASSAY RBG Protein/E7 IC₅₀

Molecule: TDLYSYEQLNDSS-NH2 [Peptide 16, [Ser²⁴]-E7-(20-32)-AMIDE]
- IC50 [1, 4]: 40000 nM

Molecule: TDLYCYE-NH2 [Peptide 6, E7-(20-26)-AMIDE]
- IC50 [1, 4]: 100000 nM
- IC50 [2, 5]: 3300 nM

Molecule: TDLYCYEQLNDSS-NH2 [Peptide 1, E7-(20-32)-AMIDE]
- IC50 [1]: 1000 nM
- IC50 [2]: 50 nM

Molecule: E7-(18-29)-AMIDE (ETTDLYCYEQLN-NH2; UniProt P03129 18-29, looked up, fragment) [Peptide 8]
- IC50 [1, 4]: 400 nM
- IC50 [2, 5]: 60 nM

Molecule: TDLFCYEQLN-NH2 [Peptide 19, [Phe²³]-E7-(20-29)-AMIDE]
- IC50 [1, 4]: 1000 nM
- IC50 [2, 5]: 600 nM

Molecule: TDLYCYEQLNDSS-NH2 [Peptide A, Thr-Asp-Leu-Tyr-Cys-Tyr-Glu-Gln-Leu-Asn-Asp-Ser-Ser-NH₂]
- reduction in HPV-16 E7 protein binding to the RBG protein ([3]; peptide at 2 uM): 60%
- reduction in HPV-16 E7 protein binding to the RBG protein ([3]; peptide at 20 uM): 90%
- reduction in HPV-16 E7 protein binding to the RBG protein ([3]; peptide at 40 uM): 90%
- inhibition of the binding of the HPV E7 protein to the RBG protein (in words) [3]: inhibited

Molecule: TDLYCYEQLN [Peptide 11, E7-(20-29)-ACID]
- IC50 [2]: 80 nM

Molecule: TDLYCYEQL-NH2 [Peptide 4, E7-(20-28)-AMIDE]
- IC50 [1, 4]: 5000 nM
- IC50 [2, 5]: 700 nM

Molecule: Ac-LYCYEQLNDSS-NH2 [Peptide C, Ac-Leu-Tyr-Cys-Tyr-Glu-Gln-Leu-Asn-Asp-Ser-Ser-NH₂]
- concentration at which HPV-16 E7 protein binding to the RBG protein was inhibited ([3]; concentrations as low as): ≤ 1 µM

Molecule: Ac-DLYCYEQLN-NH2 [Peptide 14, N-Ac-E7-(21-29)-AMIDE]
- IC50 [1]: 1000 nM
- IC50 [2]: 40 nM

Molecule: TDLYCYENLND-NH2 [Peptide 23, [Asn²⁷]-E7-(20-30)-AMIDE]
- IC50 [1, 4]: 1000 nM

Molecule: TDLYCYEQLND-NH2 [Peptide 2, E7-(20-30)-AMIDE]
- IC50 [1]: 1000 nM
- IC50 [2]: 80 nM

Molecule: DLYCYEQLNDSS-NH2 [Peptide 10, E7-(21-32)-AMIDE]
- IC50 [1]: 20000 nM
- IC50 [2]: 11400 nM

Molecule: CSCC[C@H](NC(=O)[C@H](CC(C)C)NC(=O)[C@H](Cc1c[nH]cn1)NC(=O)CNC(=O)[C@@H](NC(=O)[C@H](C)NC(=O)[C@H](Cc1c[nH]c2ccccc12)NC(=O)[C@H](Cc1c[nH]cn1)NC(C)=O)C(C)C)C(N)=O [Acetyl-GRP 20-27, reference compound]
- effect on HPV-16 E7 protein binding to the RBG protein ([3]; concentrations up to 60 uM): no effect
- inhibition of the binding of the HPV E7 protein to the RBG protein (in words) [3]: can not inhibit

Molecule: Ac-LYCYEQLNDSS-NH2 [Peptide 15, N-Ac-E7-(22-32)-AMIDE]
- IC50 [1, 4]: 10000 nM
- IC50 [2, 5]: 25000 nM

Molecule: TNLYCYEQL-NH2 [Peptide 22, [Asn²¹]-E7-(20-28)-AMIDE]
- IC50 [1, 4]: > 100000 nM

Molecule: TDLYCFEQLN-NH2 [Peptide 20, [Phe²⁵]-E7-(20-29)-AMIDE]
- IC50 [1, 4]: 15000 nM
- IC50 [2, 5]: > 50000 nM

Molecule: Ac-TDLYCYEQLN-NH2 [Peptide 13, N-Ac-E7-(20-29)-AMIDE]
- IC50 [2]: 80 nM

Molecule: TDLYCYEQ-NH2 [Peptide 5, [Gln27]]-E7-(20-27)-AMIDE]
- IC50 [1, 4]: 50000 nM
- IC50 [2, 5]: 9100 nM

Molecule: CC[C@H](NC(=O)[C@H](Cc1ccc(O)cc1)NC(=O)[C@H](CC(C)C)NC(=O)[C@H](CC(=O)O)NC(=O)[C@@H](N)[C@@H](C)O)C(=O)N[C@@H](Cc1ccc(O)cc1)C(=O)N[C@@H](CCC(=O)O)C(=O)N[C@@H](CCC(N)=O)C(=O)N[C@@H](CC(C)C)C(=O)N[C@@H](CC(N)=O)C(=O)N[C@@H](CC(=O)O)C(=O)N[C@@H](CO)C(=O)N[C@@H](CO)C(N)=O [Peptide 17, [ABU²⁴]-E7-(20-32)-AMIDE] (H-TDLY[Abu]YEQLNDSS-NH2)
- IC50 [1, 4]: 20000 nM

Molecule: Ac-TDLYCYEQLN [Peptide 12, N-Ac-E7-(20-29)-ACID]
- IC50 [2]: 60 nM

Molecule: TDLYCYEQLN-NH2 [Peptide 9, E7-(20-29)-AMIDE]
- IC50 [1]: 1000 nM
- IC50 [2]: 90 nM

Molecule: CC(=O)NCSC[C@H](NC(=O)[C@H](Cc1ccc(O)cc1)NC(=O)[C@H](CC(C)C)NC(=O)[C@H](CC(=O)O)NC(=O)[C@@H](N)[C@@H](C)O)C(=O)N[C@@H](Cc1ccc(O)cc1)C(=O)N[C@@H](CCC(=O)O)C(=O)N[C@@H](CCC(N)=O)C(=O)N[C@@H](CC(C)C)C(=O)N[C@@H](CC(N)=O)C(=O)N[C@@H](CC(=O)O)C(=O)N[C@@H](CO)C(=O)N[C@@H](CO)C(N)=O [Peptide 18, [ACM²⁴]-E7-(20-32)-AMIDE] (H-TDLYC(Acm)YEQLNDSS-NH2)
- IC50 [1]: > 100000 nM

Molecule: TDLYCYQQL-NH2 [Peptide 21, [Gln²⁶]-E7-(20-28)-AMIDE]
- IC50 [1, 4]: > 100000 nM

Molecule: E7-(14-29)-AMIDE (DLQPETTDLYCYEQLN-NH2; UniProt P03129 14-29, looked up, fragment) [Peptide 7]
- IC50 [2, 5]: 80 nM
